From patent US10870647B2, “Imidazopyridine derivative, method for preparing same, and pharmaceutical composition containing same as active ingredient for preventing or treating cancer” (DAEGU-GYEONGBUK MEDICAL INNOVATION FOUNDATION, priority 2016, dated 2020)

Key:
Assay in all cases: Kinase selectivity, scanMAX Kinase assay panel (DiscoverX), % control at 1 uM
Assay type in all cases: binding
[1] = molecular target: T1, scanMAX Kinase assay panel (Homo sapiens, UniProt O00444); conditions: PLK4; 1 uM; read-out: Percent Control (%)
T1 construct: purchased DiscoverX
T1 sequence (O00444 1-970): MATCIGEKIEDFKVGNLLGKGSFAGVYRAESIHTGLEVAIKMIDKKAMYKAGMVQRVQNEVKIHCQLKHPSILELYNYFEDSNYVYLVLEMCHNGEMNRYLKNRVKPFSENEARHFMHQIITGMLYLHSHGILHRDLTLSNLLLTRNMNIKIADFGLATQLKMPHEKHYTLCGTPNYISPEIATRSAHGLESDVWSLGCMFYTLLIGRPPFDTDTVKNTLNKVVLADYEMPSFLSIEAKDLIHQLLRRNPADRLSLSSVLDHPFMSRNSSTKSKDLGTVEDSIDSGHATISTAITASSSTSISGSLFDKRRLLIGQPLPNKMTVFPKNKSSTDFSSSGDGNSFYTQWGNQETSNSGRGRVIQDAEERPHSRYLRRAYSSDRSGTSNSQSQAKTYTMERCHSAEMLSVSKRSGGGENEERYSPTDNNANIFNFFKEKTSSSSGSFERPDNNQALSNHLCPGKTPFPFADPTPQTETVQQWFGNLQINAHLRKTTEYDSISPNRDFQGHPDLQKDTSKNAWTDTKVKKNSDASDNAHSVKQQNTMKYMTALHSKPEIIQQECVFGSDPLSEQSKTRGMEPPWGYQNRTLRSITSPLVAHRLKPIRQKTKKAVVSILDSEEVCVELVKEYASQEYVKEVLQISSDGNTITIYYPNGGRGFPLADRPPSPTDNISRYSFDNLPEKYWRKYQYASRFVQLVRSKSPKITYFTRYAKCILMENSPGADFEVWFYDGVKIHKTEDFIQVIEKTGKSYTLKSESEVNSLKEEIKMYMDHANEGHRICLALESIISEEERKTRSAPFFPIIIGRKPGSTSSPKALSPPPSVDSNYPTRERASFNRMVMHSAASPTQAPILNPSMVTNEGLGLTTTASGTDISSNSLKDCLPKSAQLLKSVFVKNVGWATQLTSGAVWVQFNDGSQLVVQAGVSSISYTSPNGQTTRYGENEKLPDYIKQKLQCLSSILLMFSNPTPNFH
Method in brief: (§1)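 Each kinase was first exposed to the test compound at 1 uM in DMSO. Signal was then normalised to positive and negative controls to give % control. Finally, any enzyme showing <35% control was judged inhibited.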

[2] = molecular target: T2, scanMAX Kinase assay panel (Homo sapiens, UniProt O14920); conditions: IKK-beta; 1 uM; read-out: Percent Control (%)
T2 construct: purchased DiscoverX
T2 sequence (O14920 1-756): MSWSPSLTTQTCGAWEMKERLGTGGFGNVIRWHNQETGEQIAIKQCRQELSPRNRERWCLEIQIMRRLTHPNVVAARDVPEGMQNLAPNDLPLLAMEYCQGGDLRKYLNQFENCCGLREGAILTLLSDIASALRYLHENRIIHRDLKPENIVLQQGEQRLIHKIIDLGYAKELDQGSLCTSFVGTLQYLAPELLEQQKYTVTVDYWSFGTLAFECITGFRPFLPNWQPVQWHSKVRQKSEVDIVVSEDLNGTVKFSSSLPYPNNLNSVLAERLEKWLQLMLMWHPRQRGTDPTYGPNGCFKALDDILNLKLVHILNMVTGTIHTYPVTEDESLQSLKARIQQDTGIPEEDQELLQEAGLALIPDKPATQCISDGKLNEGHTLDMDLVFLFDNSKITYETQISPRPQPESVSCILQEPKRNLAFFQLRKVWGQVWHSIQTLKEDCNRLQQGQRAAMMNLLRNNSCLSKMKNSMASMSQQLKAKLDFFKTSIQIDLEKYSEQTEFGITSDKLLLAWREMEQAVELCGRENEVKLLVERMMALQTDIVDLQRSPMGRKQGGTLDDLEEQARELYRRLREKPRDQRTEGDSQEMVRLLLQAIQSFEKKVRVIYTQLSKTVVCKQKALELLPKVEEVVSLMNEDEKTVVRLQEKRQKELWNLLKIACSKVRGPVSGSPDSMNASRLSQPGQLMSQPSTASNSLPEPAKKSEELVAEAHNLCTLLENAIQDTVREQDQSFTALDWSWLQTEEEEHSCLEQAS
Method in brief: as §1

[3] = molecular target: T3, scanMAX Kinase assay panel (Homo sapiens, UniProt P00533, G719S); conditions: EGFR (G719S); 1 uM; read-out: Percent Control (%)
T3 construct: purchased DiscoverX
Method in brief: as §1

[4] = molecular target: T4, scanMAX Kinase assay panel (Homo sapiens, UniProt P24723); conditions: PRKCH; 1 uM; read-out: Percent Control (%)
T4 construct: purchased DiscoverX
Method in brief: as §1

[5] = molecular target: T5, scanMAX Kinase assay panel (Homo sapiens, UniProt P42336, M1043I); conditions: PIK3CA (M1043I); 1 uM; read-out: Percent Control (%)
T5 construct: purchased DiscoverX
Method in brief: as §1

[6] = molecular target: T6, scanMAX Kinase assay panel (Homo sapiens, UniProt P42685); conditions: FRK; 1 uM; read-out: Percent Control (%)
T6 construct: purchased DiscoverX
Method in brief: as §1

[7] = molecular target: T7, scanMAX Kinase assay panel (Homo sapiens, UniProt Q16513); conditions: PKN2; 1 uM; read-out: Percent Control (%)
T7 construct: purchased DiscoverX
Method in brief: as §1

[8] = molecular target: T8, scanMAX Kinase assay panel (Homo sapiens, UniProt Q86Z02); conditions: HIPK1; 1 uM; read-out: Percent Control (%)
T8 construct: purchased DiscoverX
Method in brief: as §1

[9] = molecular target: T9, scanMAX Kinase assay panel (Homo sapiens, UniProt Q96Q40); conditions: PFTAIRE2; 1 uM; read-out: Percent Control (%)
T9 construct: purchased DiscoverX
Method in brief: as §1

[10] = molecular target: T10, scanMAX Kinase assay panel (Homo sapiens, UniProt Q9C098); conditions: DCAMKL3; 1 uM; read-out: Percent Control (%)
T10 construct: purchased DiscoverX
Method in brief: as §1

[11] = molecular target: T11, scanMAX Kinase assay panel (Homo sapiens, UniProt Q9UM73, C1156Y); conditions: ALK (C1156Y); 1 uM; read-out: Percent Control (%)
T11 construct: purchased DiscoverX
Method in brief: as §1

T5 sequence (P42336 whole entry M1043I): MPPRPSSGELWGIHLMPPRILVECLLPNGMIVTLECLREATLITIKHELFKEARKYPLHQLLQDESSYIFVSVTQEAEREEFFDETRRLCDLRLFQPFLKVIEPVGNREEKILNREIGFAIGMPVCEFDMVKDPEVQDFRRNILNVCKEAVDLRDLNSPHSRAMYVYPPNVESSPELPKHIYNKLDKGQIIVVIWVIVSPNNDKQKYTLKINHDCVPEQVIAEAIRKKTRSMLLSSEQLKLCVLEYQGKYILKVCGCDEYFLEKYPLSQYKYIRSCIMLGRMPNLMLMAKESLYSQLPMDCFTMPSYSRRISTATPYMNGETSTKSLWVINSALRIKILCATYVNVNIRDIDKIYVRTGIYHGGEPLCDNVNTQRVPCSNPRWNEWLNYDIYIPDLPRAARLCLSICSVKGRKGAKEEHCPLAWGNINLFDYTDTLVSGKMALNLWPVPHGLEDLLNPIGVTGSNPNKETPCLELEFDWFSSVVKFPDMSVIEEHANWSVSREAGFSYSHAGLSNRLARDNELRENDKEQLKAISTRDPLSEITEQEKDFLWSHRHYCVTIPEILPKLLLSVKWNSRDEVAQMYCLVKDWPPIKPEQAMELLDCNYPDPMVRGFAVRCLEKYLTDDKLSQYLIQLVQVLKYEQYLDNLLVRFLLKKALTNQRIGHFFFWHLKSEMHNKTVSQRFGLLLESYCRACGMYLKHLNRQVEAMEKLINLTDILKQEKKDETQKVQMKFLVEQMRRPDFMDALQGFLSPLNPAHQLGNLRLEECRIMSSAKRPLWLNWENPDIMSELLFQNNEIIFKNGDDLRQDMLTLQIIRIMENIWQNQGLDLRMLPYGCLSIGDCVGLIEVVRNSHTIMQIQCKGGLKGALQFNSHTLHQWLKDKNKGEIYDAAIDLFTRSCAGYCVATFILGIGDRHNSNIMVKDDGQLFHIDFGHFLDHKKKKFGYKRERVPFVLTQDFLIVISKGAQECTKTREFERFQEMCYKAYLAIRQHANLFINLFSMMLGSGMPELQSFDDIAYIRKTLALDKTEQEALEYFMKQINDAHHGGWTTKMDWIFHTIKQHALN
T3 sequence (P00533 25-1210 G719S): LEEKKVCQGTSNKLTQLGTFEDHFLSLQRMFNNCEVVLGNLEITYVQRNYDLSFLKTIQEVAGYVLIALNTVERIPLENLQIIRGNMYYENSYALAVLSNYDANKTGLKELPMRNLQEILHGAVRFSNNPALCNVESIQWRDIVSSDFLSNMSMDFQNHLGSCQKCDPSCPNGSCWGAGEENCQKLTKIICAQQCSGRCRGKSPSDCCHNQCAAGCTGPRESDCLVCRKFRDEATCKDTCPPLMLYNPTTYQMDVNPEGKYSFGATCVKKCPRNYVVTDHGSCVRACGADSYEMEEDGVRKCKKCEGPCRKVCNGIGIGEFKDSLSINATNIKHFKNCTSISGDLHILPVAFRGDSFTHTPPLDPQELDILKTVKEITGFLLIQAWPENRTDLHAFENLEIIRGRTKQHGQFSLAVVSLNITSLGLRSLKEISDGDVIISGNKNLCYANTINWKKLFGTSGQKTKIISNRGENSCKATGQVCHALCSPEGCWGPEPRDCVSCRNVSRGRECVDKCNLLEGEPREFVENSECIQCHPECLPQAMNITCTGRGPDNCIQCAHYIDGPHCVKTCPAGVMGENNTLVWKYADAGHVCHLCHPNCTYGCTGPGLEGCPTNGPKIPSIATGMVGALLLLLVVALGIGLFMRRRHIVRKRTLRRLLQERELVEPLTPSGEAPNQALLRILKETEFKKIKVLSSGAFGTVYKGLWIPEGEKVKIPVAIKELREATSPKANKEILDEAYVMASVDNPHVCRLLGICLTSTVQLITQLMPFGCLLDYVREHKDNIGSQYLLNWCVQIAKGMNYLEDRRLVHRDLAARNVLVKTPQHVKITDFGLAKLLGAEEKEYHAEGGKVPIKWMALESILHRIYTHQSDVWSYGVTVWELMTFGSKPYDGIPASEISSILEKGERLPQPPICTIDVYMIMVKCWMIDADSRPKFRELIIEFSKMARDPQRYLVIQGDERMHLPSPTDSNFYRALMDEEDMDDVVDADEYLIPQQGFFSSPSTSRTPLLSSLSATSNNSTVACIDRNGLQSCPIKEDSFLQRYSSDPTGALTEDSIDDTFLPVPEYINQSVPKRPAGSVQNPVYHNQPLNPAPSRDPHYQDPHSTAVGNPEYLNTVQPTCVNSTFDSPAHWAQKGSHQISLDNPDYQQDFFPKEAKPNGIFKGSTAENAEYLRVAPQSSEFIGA
T11 sequence (Q9UM73 19-1620 C1156Y): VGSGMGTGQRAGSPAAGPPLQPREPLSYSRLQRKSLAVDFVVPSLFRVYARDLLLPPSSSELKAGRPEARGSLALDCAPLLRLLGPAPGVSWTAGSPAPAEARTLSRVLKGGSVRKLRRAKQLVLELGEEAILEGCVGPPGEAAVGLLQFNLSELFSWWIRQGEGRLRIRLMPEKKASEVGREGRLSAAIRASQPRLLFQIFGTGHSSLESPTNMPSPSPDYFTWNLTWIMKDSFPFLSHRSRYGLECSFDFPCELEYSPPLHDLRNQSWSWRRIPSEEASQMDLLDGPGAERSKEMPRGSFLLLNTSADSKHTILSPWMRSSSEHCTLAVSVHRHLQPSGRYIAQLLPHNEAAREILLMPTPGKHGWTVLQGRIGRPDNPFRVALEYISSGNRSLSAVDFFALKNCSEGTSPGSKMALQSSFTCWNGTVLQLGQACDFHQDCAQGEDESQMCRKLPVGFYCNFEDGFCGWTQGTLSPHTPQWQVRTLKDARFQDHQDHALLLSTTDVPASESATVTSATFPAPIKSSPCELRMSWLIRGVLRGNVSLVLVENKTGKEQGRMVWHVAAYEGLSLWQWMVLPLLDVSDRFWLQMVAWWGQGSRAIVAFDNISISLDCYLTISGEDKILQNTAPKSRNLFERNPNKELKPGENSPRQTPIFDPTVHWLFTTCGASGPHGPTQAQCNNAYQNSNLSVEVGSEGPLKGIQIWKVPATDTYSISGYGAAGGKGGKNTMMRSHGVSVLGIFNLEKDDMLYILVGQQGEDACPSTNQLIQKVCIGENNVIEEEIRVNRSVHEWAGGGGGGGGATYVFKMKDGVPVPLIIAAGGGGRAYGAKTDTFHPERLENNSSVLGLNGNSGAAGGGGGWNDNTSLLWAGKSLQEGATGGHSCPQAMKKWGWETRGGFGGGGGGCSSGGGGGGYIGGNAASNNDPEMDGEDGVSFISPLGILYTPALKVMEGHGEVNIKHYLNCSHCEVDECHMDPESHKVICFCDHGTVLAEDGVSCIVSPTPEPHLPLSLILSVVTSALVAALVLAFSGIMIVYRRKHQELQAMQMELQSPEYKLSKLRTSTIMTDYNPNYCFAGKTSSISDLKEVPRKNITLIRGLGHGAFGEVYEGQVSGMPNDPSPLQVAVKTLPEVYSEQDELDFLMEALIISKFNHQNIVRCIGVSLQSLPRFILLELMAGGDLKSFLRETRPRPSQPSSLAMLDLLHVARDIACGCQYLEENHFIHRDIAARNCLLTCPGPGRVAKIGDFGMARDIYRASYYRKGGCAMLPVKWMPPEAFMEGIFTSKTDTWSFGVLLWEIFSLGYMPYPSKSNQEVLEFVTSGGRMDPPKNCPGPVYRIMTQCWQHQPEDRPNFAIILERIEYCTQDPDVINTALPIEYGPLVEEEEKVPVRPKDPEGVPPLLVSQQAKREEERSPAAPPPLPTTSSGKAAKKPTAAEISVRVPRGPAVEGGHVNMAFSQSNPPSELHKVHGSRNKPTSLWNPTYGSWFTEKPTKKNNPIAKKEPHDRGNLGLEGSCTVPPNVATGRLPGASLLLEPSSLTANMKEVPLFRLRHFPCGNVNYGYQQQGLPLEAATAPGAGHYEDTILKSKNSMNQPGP
T10 sequence (Q9C098 whole entry): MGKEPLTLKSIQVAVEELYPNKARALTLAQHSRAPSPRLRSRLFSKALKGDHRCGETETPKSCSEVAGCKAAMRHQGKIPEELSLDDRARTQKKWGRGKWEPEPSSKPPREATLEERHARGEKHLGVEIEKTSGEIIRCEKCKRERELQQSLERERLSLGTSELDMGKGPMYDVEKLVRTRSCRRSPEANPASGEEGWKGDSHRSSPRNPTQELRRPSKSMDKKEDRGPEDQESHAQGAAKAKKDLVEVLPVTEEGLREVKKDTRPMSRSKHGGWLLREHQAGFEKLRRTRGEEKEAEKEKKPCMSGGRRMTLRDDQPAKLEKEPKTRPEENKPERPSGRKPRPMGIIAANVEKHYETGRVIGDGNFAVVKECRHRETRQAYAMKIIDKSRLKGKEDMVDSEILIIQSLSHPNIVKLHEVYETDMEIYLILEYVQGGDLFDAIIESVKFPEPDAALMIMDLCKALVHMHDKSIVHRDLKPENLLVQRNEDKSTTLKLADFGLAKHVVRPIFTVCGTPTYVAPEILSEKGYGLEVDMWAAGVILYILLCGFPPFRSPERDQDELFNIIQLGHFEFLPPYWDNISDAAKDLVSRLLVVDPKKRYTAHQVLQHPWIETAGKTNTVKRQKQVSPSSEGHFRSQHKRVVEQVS
T6 sequence (P42685 whole entry): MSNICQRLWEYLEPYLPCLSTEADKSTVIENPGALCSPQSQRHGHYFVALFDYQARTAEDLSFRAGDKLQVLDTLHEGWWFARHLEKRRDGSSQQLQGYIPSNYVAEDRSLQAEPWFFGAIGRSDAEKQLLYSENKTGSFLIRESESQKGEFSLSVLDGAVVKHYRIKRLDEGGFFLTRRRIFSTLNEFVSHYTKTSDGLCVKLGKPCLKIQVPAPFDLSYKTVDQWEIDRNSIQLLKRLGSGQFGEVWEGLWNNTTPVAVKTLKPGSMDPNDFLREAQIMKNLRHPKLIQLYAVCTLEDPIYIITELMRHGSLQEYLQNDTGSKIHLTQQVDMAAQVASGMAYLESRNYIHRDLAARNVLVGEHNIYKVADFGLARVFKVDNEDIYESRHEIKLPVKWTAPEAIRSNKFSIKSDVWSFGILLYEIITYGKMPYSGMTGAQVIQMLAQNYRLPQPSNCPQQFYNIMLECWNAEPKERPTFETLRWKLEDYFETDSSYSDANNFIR

Cc1ccc(C(=O)Nc2ccc(CN3CCN(C)CC3)c(C(F)(F)F)c2)cc1C#Cc1cnc2c(Nc3cnn(C)c3)cccn12 [Example 1, 4-methyl-3-((8-((1-methyl-1H-pyrazol-4-yl)amino)imidazo[1,2-a]pyridin-3-yl)ethynyl)-N-(4-((4-methylpiperazin-1-yl)methyl)-3-(trifluoromethyl)phenyl)benzamide]
remaining binding at 1 µM [1]: 79% | remaining binding at 1 µM [2]: 3% | remaining binding at 1 µM [3]: 1% | remaining binding at 1 µM [4]: 100% | remaining binding at 1 µM [5]: 90% | remaining binding at 1 µM [6]: 2% | remaining binding at 1 µM [7]: 83% | remaining binding at 1 µM [8]: 51% | remaining binding at 1 µM [9]: 6% | remaining binding at 1 µM [10]: 98% | remaining binding at 1 µM [11]: 76%

Cc1cn(-c2cc(NC(=O)c3ccc(C)c(C#Cc4cnc5c(Nc6cnn(C)c6)cccn45)c3)cc(C(F)(F)F)c2)cn1 [Example 12, 4-methyl-N-(3-(4-methyl-1H-imidazol-1-yl)-5-(trifluoromethyl)phenyl)-3-((8-((1-methyl-1H-pyrazol-4-yl)amino)imidazo[1,2-a]pyridin-3-yl)ethynyl)benzamide]
remaining binding at 1 µM [1]: 85% | remaining binding at 1 µM [2]: 39% | remaining binding at 1 µM [3]: 20% | remaining binding at 1 µM [4]: 100% | remaining binding at 1 µM [5]: 100% | remaining binding at 1 µM [6]: 14% | remaining binding at 1 µM [7]: 83% | remaining binding at 1 µM [8]: 71% | remaining binding at 1 µM [9]: 75% | remaining binding at 1 µM [10]: 88% | remaining binding at 1 µM [11]: 100%

Cc1ccc(NC(=O)C2(C(=O)Nc3ccc(F)cc3)CC2)cc1C#Cc1cnc2c(Nc3cnn(C(C)C)c3)cccn12 [Example 78]
remaining binding at 1 µM [1]: 100% | remaining binding at 1 µM [2]: 100% | remaining binding at 1 µM [3]: 100% | remaining binding at 1 µM [4]: 100% | remaining binding at 1 µM [5]: 100% | remaining binding at 1 µM [6]: 69% | remaining binding at 1 µM [7]: 89% | remaining binding at 1 µM [8]: 91% | remaining binding at 1 µM [9]: 100% | remaining binding at 1 µM [10]: 100% | remaining binding at 1 µM [11]: 100%
